Patent US20090270363A1, “2-Aryl- and 2-Heteroarylthiazolyl Compounds, Methods for Their Preparation and Use Thereof” (Wyeth, priority 2008, published 2009)

Assays:
[1] = tested on: securin "knock out" cells D8 (Securin-/-); test: Growth inhibition (sulforhodamine B, 5 days) of securin knock out cells D8; assay type: cell-based; settings: for IC50: 120 h, securin knock out D8 cells, 5 days, SRB; for Selectivity Ratio D8: IC50 HCT116 / IC50 securin KO D8
Experimental: (§1) IC50 analysis was performed for selected fused bicyclic 2-aryl or 2-heteroarylthiazolyl compounds that were tested on HCT116 cells and Securin “knock out” cell lines.
(§2) Cell Culture—HCT116 and securin “knock out” cells. HCT116 and securin “knock out” cells (D8 and F3) were grown in RPMI+5% fetal bovine serum and gentamycin. They were maintained in a humidified 37° C. incubator with 5% CO2. Since the securin “knock out” cells have active chromosomal instability, cells were used at a low passage number of 2-13 passages. At or before passage 13 a new vial of cells was thawed and used for the screen. Cell seeding—HCT116 cells and securin “knock out” cells were trypsinized and suspended in RPMI+5% FBS at a density of 27,000 cells/mL. HCT116 and securin “knock out” cells were seeded separately in wells of a 96-well plate (Falcon Cat # 35-3872) at a cell density of 4000 cells per well. Cells were seeded in 150 μL of RPMI media containing 5% FBS and gentamycin. Cell seeding was performed under aseptic conditions. Cells were allowed to attach and grow overnight in a humidified 37° C. incubator.
(§3) Compound Dilution and Dispensation. A series of stock solutions, 10 mg/mL of fused bicyclic 2-aryl- or 2-heteroarylthiazolyl compounds to be tested, were brought to room temperature. The compounds were diluted 1:50 in RPMI+5% FBS (Highest concentration 200 μg/mL). The compounds were then serially diluted 1:3 across a deep-well titration plate resulting in final concentrations in the plate of 200, 66.7, 22.2, 7.4, 2.4, 0.8, 0.27, 0.091, 0.03, 0.01, and 0.0034 μg/mL with one well left without a compound. 50 μL of this dilution series was added to the 150 μL of cells to result in a final concentration of compound in with the cells of 50, 16.6, 5.5, 1.8, 0.6, 0.2, 0.068, 0.023, 0.0076, 0.0025, and 0.00084 μg/mL. The dilution and addition of compounds to the plates is performed using a Multimek 96 Robot (Beckman Coulter).
(§4) Incubation and analysis. After dosing, the cells in the 96 well plates were returned to the humidified 37° C. incubator. The compounds remained on the cells for 5 days. After 5 days, the cells were fixed to the plates with the addition of 50 μL of 50% (vol/vol) Trichloro Acetic Acid ([…]). The cells were fixed at 4° C. for 1 hour. The plates were washed 5 times in distilled water and allowed to dry. The cells were stained with 0.4% sulforhodamine B (Sigma) in 1% acetic acid. The cells were stained for 15 minutes at room temperature. The plates were then washed 3 times in 1% acetic acid. The plates were dried and the dye was solubilized in 10 mM Tris at pH 8.0. The plates were read on the Absorbence 560 setting on a Victor^2 V Model 1420 Multilabel HTS counter (Perkin Elmer).
(§5) Analysis of Results—IC50 data. Absorbence data was read off of the Victor and was converted to a percentage of the control (untreated) values. IC50 values were graphed and the point at which a 50% inhibition of the control level was determined. […] If the model was not able to determine an IC50, the IC50 was assigned to the lowest concentration that gives a 50% or greater decrease in absorbence compared to control levels. If the calculated IC50 value for a cell line exceeds the top concentration for the assay (typically 50 μg/mL), the assay was scored as >50.
(§6) Selectivity Ratio. The Selectivity Ratio is the ratio of IC50s between the parent cell line and the knock out cell line and is always a positive number and is typically an integer.

[2] = tested on: HCT116 cells (Securin+/+, securin parental, HCT116 FB); test: Growth inhibition (sulforhodamine B, 5 days) of securin parental cells; assay type: cell-based; settings: Homo sapiens, HCT-116, 120 h, SRB
Experimental: as §1, §2, §3, §4, §5, §6

[3] = tested on: securin "knock out" cells F3 (Securin-/-); test: Growth inhibition (sulforhodamine B, 5 days) of securin knock out cells F3; assay type: cell-based; settings: for IC50: 120 h, securin knock out F3 cells, 5 days, SRB; for Selectivity Ratio F3: IC50 HCT116 / IC50 securin KO F3
Experimental: as §1, §2, §3, §4, §5, §6

[4] = tested on: Xenografts of a Human Breast Carcinoma Cell Line (MDA-MB-361); test: Tumor xenograft study versus Herceptin (Table 2); assay type: in vivo
Experimental: (§7) Selected fused bicyclic 2-aryl- or 2-heteroarylthiazolyl compounds of formula I were tested for their activity in a securin parental cell line (HCT116 FB) and a securin knockout (KO) cell line. […] The in-vivo activity of selected fused bicyclic 2-aryl- or 2-heteroarylthiazolyl compounds of formula I was studied in cells growing as xenografts in athymic (nude) mice. The effect of Examples 164, 166 and 167 was studied in xenografts of a human breast carcinoma cell line (MDA-MB-361).
(§8) In-vivo Activity in Tumor Xenografts. […] The fused bicyclic 2-arylthiazolyl compounds were formulated using 0.5% Methocel™ (methylcellulose) and 0.4% Tween 80™ (polysorbate-80 and oleic acid) and administered daily orally (PO), by gavage or by syringe. Tumor mass [(length×width^2)/2] was determined every 7 days. Inhibition of tumor growth was calculated relative to conventional (vehicle treated) controls.

[5] = tested on: Xenografts of a Human Breast Carcinoma Cell Line (MDA-MB-361); test: Tumor xenograft study versus Vincristine (Table 3); assay type: in vivo; settings: days 2 through 21; for S/T = # of Survivors/# of Treated on Day +36: * = sacrificed earlier due to tumor size
Experimental: as §7, §8
The effectiveness of Examples 164, 166 and 167 versus Vincristine at controlling tumor growth was studied and the results are summarized in Table 3 and FIG. 2.

[6] = 25 mg/kg/dose IP, days 1, 3, 5 ... 19
[7] = 25 mg/kg/dose PO, days 1 through 20
[8] = 20 mg/kg/dose PO, days 1 through 20

Compound: CN(C)c1ccc(-c2nc3c(s2)[C@H](O)CCC3)cc1 [Example 164, (7R)-2-[4-(dimethylamino)phenyl]-4,5,6,7-tetrahydro-1,3-benzothiazol-7-ol]
- selectivity ratios (IC50 HCT116 FB/IC50 securin KO) [1]: high selectivity ratios
- IC50 [1]: 0.81 µM
- Selectivity Ratio D8 [1]: 124
- IC50 [2]: 101 µM
- IC50 [3]: 1.3 µM
- Selectivity Ratio F3 [3]: 78
- % T/C Day 7 [4, 6]: 64%
- % T/C Day 14 [4, 6]: 101%
- % T/C Day 21 [4, 6]: 74%
- Relative Tumor Growth Day 7 [4, 6]: 1.23
- Relative Tumor Growth Day 14 [4, 6]: 3.23
- Relative Tumor Growth Day 21 [4, 6]: 8.04
- S/T = # of Survivors/# of Treated on Day +21 [4, 6]: 4/5
- % T/C Day 7 [4, 7]: 81%
- % T/C Day 14 [4, 7]: 115%
- % T/C Day 21 [4, 7]: 117%
- Relative Tumor Growth Day 7 [4, 7]: 1.57
- Relative Tumor Growth Day 14 [4, 7]: 3.68
- Relative Tumor Growth Day 21 [4, 7]: 12.27
- S/T = # of Survivors/# of Treated on Day +21 [4, 7]: 5/5
- % T/C Day 8 ([5]; 25 mg/kg/dose PO): 41%
- % T/C Day 15 ([5]; 25 mg/kg/dose PO): 37%
- % T/C Day 22 ([5]; 25 mg/kg/dose PO): 45%
- Relative Tumor Growth Day 8 ([5]; 25 mg/kg/dose PO): 2.17
- Relative Tumor Growth Day 15 ([5]; 25 mg/kg/dose PO): 4.64
- Relative Tumor Growth Day 22 ([5]; 25 mg/kg/dose PO): 10.02
- Relative Tumor Growth Day 29 ([5]; 25 mg/kg/dose PO): 15.52
- % T/C Day 8 ([5]; 50 mg/kg/dose PO): 45%
- Relative Tumor Growth Day 8 ([5]; 50 mg/kg/dose PO): 2.37
- Relative Tumor Growth Day 15 ([5]; 50 mg/kg/dose PO): Toxic
- S/T = # of Survivors/# of Treated on Day +36 ([5]; 50 mg/kg/dose PO): 0/5

Compound: COC(=O)c1cc(N(C)C)ccc1-c1nc2c(s1)[C@H](O)CCC2 [Example 165, methyl 5-(dimethylamino)-2-[(7R)-7-hydroxy-4,5,6,7-tetrahydro-1,3-benzothiazol-2-yl]benzoate]
- IC50 [1]: 0.29 µM
- Selectivity Ratio D8 [1]: 348
- IC50 [2]: 100 µM
- IC50 [3]: 0.74 µM
- Selectivity Ratio F3 [3]: 136

Compound: CN(C)c1ccc(-c2nc3c(s2)C(O)CCC3)cc1 (centres unmarked) [Example 166, 2-[4-(dimethylamino)phenyl]-4,5,6,7-tetrahydro-1,3-benzothiazol-7-ol]
- IC50 [1]: 1.7 µM
- Selectivity Ratio D8 [1]: 30
- IC50 [2]: 52.5 µM
- IC50 [3]: 3.5 µM
- Selectivity Ratio F3 [3]: 15
- % T/C Day 7 [4, 8]: 69%
- % T/C Day 14 [4, 8]: 126%
- % T/C Day 21 [4, 8]: 102%
- Relative Tumor Growth Day 7 [4, 8]: 1.33
- Relative Tumor Growth Day 14 [4, 8]: 4.05
- Relative Tumor Growth Day 21 [4, 8]: 10.76
- S/T = # of Survivors/# of Treated on Day +21 [4, 8]: 10/10
- % T/C Day 7 [4, 6]: 80%
- % T/C Day 14 [4, 6]: 93%
- % T/C Day 21 [4, 6]: 92%
- Relative Tumor Growth Day 7 [4, 6]: 1.55
- Relative Tumor Growth Day 14 [4, 6]: 3.00
- Relative Tumor Growth Day 21 [4, 6]: 9.63
- S/T = # of Survivors/# of Treated on Day +21 [4, 6]: 8/10
- % T/C Day 8 ([5]; 10 mg/kg/dose PO): 60%
- % T/C Day 15 ([5]; 10 mg/kg/dose PO): 60%
- % T/C Day 22 ([5]; 10 mg/kg/dose PO): 100%
- Relative Tumor Growth Day 8 ([5]; 10 mg/kg/dose PO): 3.16
- Relative Tumor Growth Day 15 ([5]; 10 mg/kg/dose PO): 7.40
- Relative Tumor Growth Day 22 ([5]; 10 mg/kg/dose PO): 22.01
- % T/C Day 8 ([5]; 30 mg/kg/dose PO): 55%
- % T/C Day 15 ([5]; 30 mg/kg/dose PO): 59%
- % T/C Day 22 ([5]; 30 mg/kg/dose PO): 98%
- Relative Tumor Growth Day 8 ([5]; 30 mg/kg/dose PO): 2.87
- Relative Tumor Growth Day 15 ([5]; 30 mg/kg/dose PO): 7.34
- Relative Tumor Growth Day 22 ([5]; 30 mg/kg/dose PO): 21.48
- % T/C Day 8 ([5]; 40 mg/kg/dose PO): 33%
- % T/C Day 15 ([5]; 40 mg/kg/dose PO): 35%
- % T/C Day 22 ([5]; 40 mg/kg/dose PO): 53%
- Relative Tumor Growth Day 8 ([5]; 40 mg/kg/dose PO): 1.72
- Relative Tumor Growth Day 15 ([5]; 40 mg/kg/dose PO): 4.29
- Relative Tumor Growth Day 22 ([5]; 40 mg/kg/dose PO): 11.74
- Relative Tumor Growth Day 29 ([5]; 40 mg/kg/dose PO): 7.65
- % T/C Day 8 ([5]; 50 mg/kg/dose PO): 58%
- % T/C Day 15 ([5]; 50 mg/kg/dose PO): 62%
- Relative Tumor Growth Day 8 ([5]; 50 mg/kg/dose PO): 3.04
- Relative Tumor Growth Day 15 ([5]; 50 mg/kg/dose PO): 7.67
- Relative Tumor Growth Day 22 ([5]; 50 mg/kg/dose PO): Toxic
- S/T = # of Survivors/# of Treated on Day +36 ([5]; 50 mg/kg/dose PO): 0/5

Compound: CN(C)c1ccc(-c2nc3c(s2)[C@@H](O)CCC3)cc1 [Example 167, (7S)-2-[4-(dimethylamino)phenyl]-4,5,6,7-tetrahydro-1,3-benzothiazol-7-ol]
- IC50 [1]: 60 µM
- Selectivity Ratio D8 [1]: 2
- IC50 [2]: 100 µM
- IC50 [3]: 70.7 µM
- Selectivity Ratio F3 [3]: 1
- % T/C Day 7 [4, 8]: 46%
- % T/C Day 14 [4, 8]: 61%
- % T/C Day 21 [4, 8]: 61%
- Relative Tumor Growth Day 7 [4, 8]: 0.89
- Relative Tumor Growth Day 14 [4, 8]: 1.96
- Relative Tumor Growth Day 21 [4, 8]: 6.39
- S/T = # of Survivors/# of Treated on Day +21 [4, 8]: 5/5
- % T/C Day 8 ([5]; 25 mg/kg/dose PO): 61%
- % T/C Day 15 ([5]; 25 mg/kg/dose PO): 68%
- % T/C Day 22 ([5]; 25 mg/kg/dose PO): 113%
- Relative Tumor Growth Day 8 ([5]; 25 mg/kg/dose PO): 3.18
- Relative Tumor Growth Day 15 ([5]; 25 mg/kg/dose PO): 8.38
- Relative Tumor Growth Day 22 ([5]; 25 mg/kg/dose PO): 24.80
- % T/C Day 8 ([5]; 50 mg/kg/dose PO): 50%
- % T/C Day 15 ([5]; 50 mg/kg/dose PO): 62%
- % T/C Day 22 ([5]; 50 mg/kg/dose PO): 71%
- Relative Tumor Growth Day 8 ([5]; 50 mg/kg/dose PO): 2.62
- Relative Tumor Growth Day 15 ([5]; 50 mg/kg/dose PO): 7.61
- Relative Tumor Growth Day 22 ([5]; 50 mg/kg/dose PO): 15.56
